In patent US11377442B2, “Small molecule agonists and antagonists of NR2F6 activity” (ZANDER THERAPEUTICS, INC., priority 2016, dated 2022):
Where two headings read alike, the source gives them in different places.

Legend:
Assay type in all cases: cell-based
[1] = tested on: HEK293 pGL4; assay: Firefly_pGL signal, cmpd/DMSO (pGL4 control cells); conditions: Homo sapiens
[2] = tested on: Renilla; assay: Renilla signal in NR2F6 agonist screening, cmpd/DMSO; conditions: Renilla, F4
[3] = biological target: T1, NR2F6 LBD (Homo sapiens, UniProt P10588); assay: NR2F6 LBD transient transfection; conditions: LBD
T1 construct: expressed in transfected cells
T1 sequence (P10588 165-393 limits assumed): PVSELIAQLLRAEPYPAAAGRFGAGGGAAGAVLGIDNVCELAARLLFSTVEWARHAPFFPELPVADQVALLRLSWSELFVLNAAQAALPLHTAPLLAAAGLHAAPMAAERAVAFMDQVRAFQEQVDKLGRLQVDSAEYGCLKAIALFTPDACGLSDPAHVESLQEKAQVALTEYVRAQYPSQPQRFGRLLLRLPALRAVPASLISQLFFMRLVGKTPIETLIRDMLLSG
Summary of the method: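 LBD-transfected cells treated at 40, 10, 2 and 0.5 μM (4 replicates); cytotoxicity measured in parallel, normalized to DMSO (0%) and zero signal (100%). Higher concentrations excluded where signal loss reflected toxicity.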

[4] = biological target: T2, NR2F6 (Homo sapiens, UniProt P10588); assay: NR2F6 agonist screening, Firefly signal cmpd/DMSO
T2 construct: expressed in transfected cells; also transient transfection
T2 sequence (P10588 1-404): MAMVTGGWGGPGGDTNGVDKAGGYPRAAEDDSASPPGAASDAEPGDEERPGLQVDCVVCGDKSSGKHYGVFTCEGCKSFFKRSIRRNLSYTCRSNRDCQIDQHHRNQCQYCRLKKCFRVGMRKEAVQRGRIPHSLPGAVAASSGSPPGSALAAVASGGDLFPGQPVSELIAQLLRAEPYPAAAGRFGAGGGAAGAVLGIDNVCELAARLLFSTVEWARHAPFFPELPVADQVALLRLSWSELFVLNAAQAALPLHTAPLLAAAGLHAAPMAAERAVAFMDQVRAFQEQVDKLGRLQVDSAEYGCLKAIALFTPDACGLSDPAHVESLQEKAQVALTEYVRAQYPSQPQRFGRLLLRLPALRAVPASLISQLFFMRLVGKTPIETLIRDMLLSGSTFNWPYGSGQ

[5] = read-out: Renilla, F4, cmpd/DMSO (mean)
[6] = 1% FBS, read-out: Renilla, F4, 1% FBS, cmpd/DMSO (mean)
[7] = 10% FBS, read-out: Renilla, F4, 10% FBS, cmpd/DMSO (mean)

- Firefly LBD, cmpd/DMSO (mean) ([3]; 0.5 uM): 1.2
- Firefly LBD, cmpd/DMSO (mean) ([3]; 2 uM): 1.8
- Firefly LBD, cmpd/DMSO (mean) ([3]; 10 uM): 3.8
- Firefly LBD, cmpd/DMSO (mean) ([3]; 40 uM): 0.4
- Firefly F4, cmpd/DMSO (mean) ([4]; 0.5 uM): 1.6
- Firefly F4, cmpd/DMSO (mean) ([4]; 2 uM): 1.6
- Firefly F4, cmpd/DMSO (mean) ([4]; 10 uM): 6.2
- Firefly F4, cmpd/DMSO (mean) ([4]; 40 uM): 2.4
- F4, Firefly/Renilla for S/B(F4) > 3 ([4]; 1% FBS, 10 uM): 3.2
- Firefly, F4/pGL4 for S/B(F4) > 3 ([4]; 1% FBS, 10 uM): 2.5
- F4, Firefly/Renilla for S/B(F4) > 3 ([4]; 10% FBS, 10 uM): 2.1
- Firefly, F4/pGL4 for S/B(F4) > 3 ([4]; 10% FBS, 10 uM): 1.8
- F4, Firefly/Renilla for S/B(F4) > 3 ([4]; 10% FBS, 40 uM): 2.8
- Firefly, F4/pGL4 for S/B(F4) > 3 ([4]; 10% FBS, 40 uM): 1.8
- Firefly, F4, 1% FBS, cmpd/DMSO (mean) ([4]; 1% FBS, 0.5 uM): 1.1
- Firefly, F4, 1% FBS, cmpd/DMSO (mean) ([4]; 1% FBS, 2 uM): 1.4
- Firefly, F4, 1% FBS, cmpd/DMSO (mean) ([4]; 1% FBS, 10 uM): 5.2
- Firefly, F4, 1% FBS, cmpd/DMSO (mean) ([4]; 1% FBS, 40 uM): 0.5
- Firefly, F4, 10% FBS, cmpd/DMSO (mean) ([4]; 10% FBS, 0.5 uM): 1.2
- Firefly, F4, 10% FBS, cmpd/DMSO (mean) ([4]; 10% FBS, 2 uM): 1.3
- Firefly, F4, 10% FBS, cmpd/DMSO (mean) ([4]; 10% FBS, 10 uM): 5.1
- Firefly, F4, 10% FBS, cmpd/DMSO (mean) ([4]; 10% FBS, 40 uM): 15
SMILES: CC(C)N[C@H]1CS(=O)(=O)C[C@@H]1S(=O)(=O)c1ccc(Cl)cc1 [Compound D118]
- fold induction at 0.5 µM ([1]; HEK293, 0.5 uM, pGL4, read-out: Firefly pGL4, cmpd/DMSO (mean)): 1.2
- fold induction at 2 µM ([1]; HEK293, 2 uM, pGL4, read-out: Firefly pGL4, cmpd/DMSO (mean)): 1.5
- fold induction at 10 µM ([1]; HEK293, 10 uM, pGL4, read-out: Firefly pGL4, cmpd/DMSO (mean)): 4.8
- fold induction at 40 µM ([1]; HEK293, 40 uM, pGL4, read-out: Firefly pGL4, cmpd/DMSO (mean)): 0.4
- fold induction at 0.5 µM ([1]; HEK293, pGL4, 1% FBS, 0.5 uM, read-out: Firefly, pGL4, 1% FBS, cmpd/DMSO (mean)): 0.9
- fold induction at 2 µM ([1]; HEK293, pGL4, 1% FBS, 2 uM, read-out: Firefly, pGL4, 1% FBS, cmpd/DMSO (mean)): 1.2
- fold induction at 10 µM ([1]; HEK293, pGL4, 1% FBS, 10 uM, read-out: Firefly, pGL4, 1% FBS, cmpd/DMSO (mean)): 2.1
- fold induction at 40 µM ([1]; HEK293, pGL4, 1% FBS, 40 uM, read-out: Firefly, pGL4, 1% FBS, cmpd/DMSO (mean)): 0.9
- fold induction at 0.5 µM ([1]; HEK293, pGL4, 10% FBS, 0.5 uM, read-out: Firefly, pGL4, 10% FBS, cmpd/DMSO (mean)): 1.2
- fold induction at 2 µM ([1]; HEK293, pGL4, 10% FBS, 2 uM, read-out: Firefly, pGL4, 10% FBS, cmpd/DMSO (mean)): 1.2
- fold induction at 10 µM ([1]; HEK293, pGL4, 10% FBS, 10 uM, read-out: Firefly, pGL4, 10% FBS, cmpd/DMSO (mean)): 2.9
- fold induction at 40 µM ([1]; HEK293, pGL4, 10% FBS, 40 uM, read-out: Firefly, pGL4, 10% FBS, cmpd/DMSO (mean)): 8.1
- fold induction at 0.5 µM [2, 5]: 1.1
- fold induction at 2 µM [2, 5]: 1.3
- fold induction at 10 µM [2, 5]: 1.7
- fold induction at 40 µM [2, 5]: 1.9
- fold induction at 0.5 µM [2, 6]: 1
- fold induction at 2 µM [2, 6]: 1.1
- fold induction at 10 µM [2, 6]: 1.6
- fold induction at 40 µM [2, 6]: 2.3
- fold induction at 0.5 µM [2, 7]: 1.2
- fold induction at 2 µM [2, 7]: 1.5
- fold induction at 10 µM [2, 7]: 2.5
- fold induction at 40 µM [2, 7]: 5.2
